Laboratory results taken from patent US20060100154A1, “Long-acting gonadotropin-releasing hormone analogs and methods of use thereof” (YEDA RESEARCH AND DEVELOPMENT CO, priority 2005, published 2006).
Square brackets hold non-standard residues; d marks the D form. d(pGlu) = O=C1CC[C@H](C(=O)O)N1

Experiments:
[1] = system: testes and prostate glands; assay: Long-term treatment of male rats: weight of testes and prostate glands; assay type: in vivo; conditions: 0.1 nmol/rat daily for 7 days vs parent peptide 1 nmol/rat; FIG. 7
Procedure: Control rats were injected daily with 0.5 mL of PBS. Rats were sacrificed 24 h after the last injection, and the testes and prostate glands were immediately dissected and weighed (FIG. 7). Results are the meant±SEM of the weight of the organs (six animals/experimental group).

[2] = target: T1, rat pituitary GnRH receptors (Rattus norvegicus, UniProt P30969); assay: Displacement binding assay with 125I[D-Lys6]GnRH on rat pituitary membranes; conditions: vs [D-Lys6]GnRH
T1 construct: from tissue; host or cells: rat pituitary membranes (Wistar-derived rats)
T1 sequence (P30969 1-327): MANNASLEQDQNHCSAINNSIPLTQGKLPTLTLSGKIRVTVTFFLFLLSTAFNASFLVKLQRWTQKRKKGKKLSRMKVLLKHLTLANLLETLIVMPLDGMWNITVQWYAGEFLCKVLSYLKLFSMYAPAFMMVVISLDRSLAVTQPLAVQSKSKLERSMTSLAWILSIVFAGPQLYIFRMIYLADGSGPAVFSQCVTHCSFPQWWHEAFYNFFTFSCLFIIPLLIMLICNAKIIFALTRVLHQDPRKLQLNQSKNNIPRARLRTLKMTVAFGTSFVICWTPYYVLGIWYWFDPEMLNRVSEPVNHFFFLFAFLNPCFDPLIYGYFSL
Procedure: Specific binding was calculated by subtracting the non-specific binding from the maximal binding, determined in the absence of any competing peptide. Results are the mean of two experiments carried out in triplicates. SEM values are omitted for clarity (FIG. 3).

αT3-1 cells [3] = assay: DNA fragmentation assay; assay type: cell-based, mouse; conditions: 10 μM, FIG. 10
Procedure: FIG. 10. DNA cleavage in cells treated with [D-Lys^6(Emo)]GnRH and emodic acid. αT3-1 cells were incubated; in darkness with 10 μM of the tested compounds, washed and illuminated. After 24 h of incubation DNA was isolated and analyzed by gel electrophoresis. Lanes 1, 3 and 5 represent DNA of cells treated with 1% DMSO in PBS, emodic acid or [D-Lys^6(Emo)]GnRH, respectively, followed by illumination. Lane 2, 4 and 6 represent cells treated with 1% DMSO in PBS, emodic acid, or [D-Lys^6(Emo)]GnRH, respectively, in darkness.
αT3-1 cells (×10^6/dish) were incubated in phenol red and serum free complete medium (37° C., 5% CO2) with the tested compounds for 5 h in the dark. Cells were then washed with PBS (×3) and illuminated or remained in darkness as described earlier. The media were then replaced by complete medium and cells were incubated for additional 24 h. DNA was then isolated, using Wizard® genomic DNA purification kit (Promega, Madison, Wis.) following the company's protocol and analyzed by gel electrophoresis (0.4% cross linked agarose, ethidium bromide staining).

LH release = assay: In vivo LH release after intraperitoneal administration; design: species or system rat; conditions: six h after administration; 0.04 vs 0.4 nmol/rat i.p.
Procedure: The ability of [D-Lys^6(Emo)]GnRH to bind GnRH receptors and promote LH release in vitro, prompted the evaluation of its in vivo activity.
Blood samples were withdrawn by cardiac puncture under light ether anesthesia at the indicated time intervals, and serum LH levels were determined by RIA as described above (FIG. 6). Results are the mean±SEM of LH concentrations in the serum of five animals/experimental group. The LH concentration was determined using three different dilutions of each serum sample. Similar results were obtained in two other experiments.

αT3-1 cells [4] = assay: In vitro toxicity / phototoxicity (XTT cell survival); assay type: cell-based, mouse
Procedure: αT3-1 cells (50,000 cells/well) were plated in 96-well tissue culture plates in 0.1 mL of complete medium. After 24 h the medium was changed and cells were incubated in the same medium (without serum and phenol red) containing different concentrations of the tested compounds for 4 h at 37° C. The cells were then washed (×3) with PBS and illuminated (λmax=400 nm) in PBS. The fluence rate was 14.3 mW cm^−2 with a total fluence of 17 J cm^−2. Following illumination the media were replaced by complete medium and the plates were incubated for additional 24 h at 37° C. Cell survival was determined using the XTT (Biological Industries, Beit-Haemek, Israel) kit following the manufacture's protocol. Values are expressed as % survival.

[5] = target: T2, human serum albumin (HSA) (Homo sapiens, UniProt P02768); assay: Binding to HSA; assay type: in vitro ADME; conditions: 37° C., 3 h; FIG. 8
T2 construct: purchased Sigma, St. Louis, Mo
T2 sequence (P02768 25-609): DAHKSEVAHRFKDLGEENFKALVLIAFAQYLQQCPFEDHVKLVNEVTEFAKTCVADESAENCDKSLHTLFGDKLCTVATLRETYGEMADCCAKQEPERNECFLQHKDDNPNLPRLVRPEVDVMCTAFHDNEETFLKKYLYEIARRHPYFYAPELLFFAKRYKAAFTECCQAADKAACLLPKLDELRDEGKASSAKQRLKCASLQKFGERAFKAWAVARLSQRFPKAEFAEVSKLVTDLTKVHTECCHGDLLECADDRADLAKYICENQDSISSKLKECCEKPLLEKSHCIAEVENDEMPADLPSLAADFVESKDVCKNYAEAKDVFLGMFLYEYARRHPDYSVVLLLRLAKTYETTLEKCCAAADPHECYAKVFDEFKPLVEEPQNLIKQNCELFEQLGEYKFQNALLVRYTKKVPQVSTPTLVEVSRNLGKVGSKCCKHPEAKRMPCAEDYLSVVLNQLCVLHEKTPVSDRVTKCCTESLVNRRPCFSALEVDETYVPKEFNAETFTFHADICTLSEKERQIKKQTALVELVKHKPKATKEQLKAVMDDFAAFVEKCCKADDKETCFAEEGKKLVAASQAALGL
Procedure: The concentration of HSA in the solution was determined using a molar extinction coefficient of 39,000 M^−1 cm^−1 at 277.5 nm^33. The unbound compound was then separated from the HSA solution by applying it on to a Centricon® concentrator column (Amicon Inc., Beverly, Mass.) with a band pass membrane of […] according to the manufacture's protocol. The HSA bound compound (˜20 μL) was then precipitated by adding it to acetonitrile (1 mL). The supernatant was kept and the precipitate was dissolved in PBS (100 μL) and re-precipitated. The combined supernatants were evaporated, the residue was dissolved in water containing 0.1% TFA (buffer A) and analyzed by HPLC to determine the amount of the tested compounds. Results represent the mean of two experiments (FIG. 8).

[6] = Relative hydrophobicity by elution from RP-18 HPLC column; assay type: physicochemical; conditions: percent of buffer B in which the analog was eluted from RP-18 column
Source text: All chemicals and reagents were of analytical grade. Rink amide resin, 9-fluorenylmethoxycarbonyl (Fmoc) protected amino acid derivatives, and all the reagents for solid-phase peptide synthesis were purchased from Novabiochem (Läufelfingen, Switzerland). Side-chain protecting groups employed for peptide synthesis were as follows: Arg, 2,2,4,6,7-pentamethyldihydrobenzofuran-5-sulfonyl (Pbf); His, trityl (Trt); D-Lys, 4-methyltrityl (Mtt) or tert-butyloxycarbonyl (Boc); Trp, tert-butyloxycarbonyl (Boc); Ser and Tyr, tert-butyl (tBu). Reversed phase HPLC was performed on a Spectra-Physics SP-8800 liquid chromatography system equipped with an Applied Biosystems 757 variable wavelength absorbance detector. HPLC prepacked columns were: Lichrocart, containing Lichrosorb RP-18 (250×10 mm; 7 μm, Merck, Darmstadt, Germany) for semi-preparative purification and Lichrospher 100 RP-18 (250×4 mm; 5 μm, Merck, Darmstadt, Germany) and wide pore butyl C4 (250×4.6 mm; 5 μm, J. T. Baker Inc., Phillipsburg, N.J.) for analytical purposes. HPLC purification and analysis were achieved by using a linear gradient established between 0.1% trifluoroacetic acid […] in water as buffer A and 0.1% TFA in 75% aqueous acetonitrile as buffer B. Eluent composition was 10-100% B over 40 mlin, using RP-18 column, and a gradient of 0-100% B over 40 min employing a wide pore butyl (C4) column. N-(2noro-1,4-naphtoqumonyl)-β-alanine (NQ), 1,6,8-Trihydroxy-3-carboxylic acid-anthraquinone (Emo) and 2-hydroxymethyl-anthraquinone hemiglutarate (AntrQ) were synthesized as described^14,24,27 (for chemical structure see FIG. 1).

[7] = system: primary cultures of rat pituitary cells; assay: LH releasing potency in primary rat pituitary cell cultures; assay type: cell-based; conditions: 4 h, 37° C.; compared to [D-Lys6]GnRH; FIG. 4
Procedure: The media were then collected and LH concentration were analyzed by double-antibody radioimmunoassay (RIA)^32 using kits kindly supplied by the National Institute of Arthritis, Metabolism and Digestive Diseases (NIMDD). Results (FIG. 4) are expressed in terms of LH-RP-3 rat reference preparation, and are the mean±SEM of LH concentration of two experiments (4 wells/experimental group, each). The basal release after 4 h was 9.41±2 ng/mL.

[8] = system: primary cultures of rat pituitary cells; assay: Effect of GnRH antagonist on LH secretion stimulated by [D-Lys6(Emo)]GnRH; assay type: cell-based; conditions: [D-Lys6(Emo)]GnRH 20 pM, antagonist 100 nM, 4 h; FIG. 5
Procedure: To determine the effect of a GnRH antagonist ([D-pyr^1, D-Phe^2, D-Trp^3,6]GnRH) on the induction of LH secretion from primary cultures of rat pituitary cells stimulated by [D-Lys^6(Emo)]GnRH, cells were incubated for 4 h at 37° C. with [D-Lys^6(Emo)]GnRH (20 pM) in the absence or presence of the GnRH antagonist (100 nM). The media were collected and LH concentration was determined by RIA (FIG. 5). Results are the mean±SEM of LH concentrations obtained from two experiments (4 wells/experimental group, each).

Molecule | decrease in testicular and ventral prostate gland weights [1] | reduction of affinity to GnRH receptors compared to the parent peptide [2] | DNA fragmentation in the dark (αT3-1 cells [3]; darkness) | DNA fragmentation upon illumination (αT3-1 cells [3]; illuminated) | LH levels relative to group treated with [D-Lys6]GnRH (LH release) | phototoxicity to αT3-1 cells (αT3-1 cells [4]; 10 μM, illuminated, FIG. 9) | toxicity to αT3-1 cells in the dark (αT3-1 cells [4]; incubated in the dark) | binding to HSA [5] | Hydrophobicity (% B) [6] [% B] | LH releasing activity in vitro [7] | inhibition of [D-Lys6(Emo)]GnRH-induced LH secretion [8]
CC(C)C[C@H](NC(=O)[C@@H](CCCCNC(=O)c1cc(O)c2c(c1)C(=O)c1cc(O)cc(O)c1C2=O)NC(=O)[C@H](Cc1ccc(O)cc1)NC(=O)[C@H](CO)NC(=O)[C@H](Cc1c[nH]c2ccccc12)NC(=O)[C@H](Cc1c[nH]cn1)NC(=O)[C@@H]1CCC(=O)N1)C(=O)N[C@@H](CCCNC(=N)N)C(=O)N1CCC[C@H]1C(=O)NCC(N)=O [[D-Lys^6(Emo)]GnRH, [D-Lys^6(1,3,8-trihydroxy-6-carboxy-anthraquinone)]GnRH] | greater decrease | about 3 fold | did not cause any DNA fragmentation | but not [D-Lys^6(Emo)]GnRH (lane 5) induced DNA fragmentation | about 6 folds | did not exhibit any toxicity | did not show any toxicity | binds significantly to HSA | 66 | highest bioactivity | –
[D-pGlu^1, D-Phe^2, D-Trp^3,6]GnRH ([d(pGlu)][dF][dW]SY[dW]LRPG-NH2; SMILES CC(C)C[C@H](NC(=O)[C@@H](Cc1c[nH]c2ccccc12)NC(=O)[C@H](Cc1ccc(O)cc1)NC(=O)[C@H](CO)NC(=O)[C@@H](Cc1c[nH]c2ccccc12)NC(=O)[C@@H](Cc1ccccc1)NC(=O)[C@H]1CCC(=O)N1)C(=O)N[C@@H](CCCNC(=N)N)C(=O)N1CCC[C@H]1C(=O)NCC(N)=O) [GnRH antagonist] | – | – | – | – | – | – | – | – | – | – | completely inhibited
